From US8603465B1, “Methods for treatment of polyposis” (Merck Sharp & Dohme, Corp., priority 2006, dated 2013)

System: C57Bl/6J (hIGF1R, Apc^Min/+) mice
Test: Inhibition of polyposis in human IGF1R knock-in Apc Min/+ mice (adenoma number and diameter scored at postnatal day 80)
Assay type: in vivo
Details: small intestine and colon, 19D12 0.02, 0.1, 0.5 mg/mouse i.p. once a week, celecoxib 150, 500, 1500 ppm in diet
Excerpt: In this example, the ability of anti-IGF1R antibody 19D12 (LCF/HCA: amino acids 20-128 of SEQ ID NO: 8 and 20-137 of SEQ ID NO: 10) to treat familial adenomatous polyposis (FAP) is established in a mouse model for the disease. The model comprises the Apc^Min/+ allele which imparts the FAP phenotype. A phenotype that results from the allele is increased development of intestinal adenomas. The Min mutant mouse has an autosomal dominant heterozygous nonsense mutation in the mouse Apc gene (see e.g., Su et al., Science (Wash D.C.) 256: 668-670 (1992)).
The Min mice are also engineered, by a knock-in mutation, to express the human IGF1R gene. Expression of the IGF1R gene, in the Min mouse, allows determination of the ability of an anti-IGF1R antibody to alleviate the FAP phenotype. […]
Small intestinal adenomas and colonic adenomas are scored for number and diameter at postnatal day 80. […] Small intestine surface area is calculated by summation of the multiples of length of each fixed segment by width, which is measured at the midpoint of each segment. Colon surface area is calculated by multiplying the length of the fixed material from the anorectal junction to the point of insertion of the small intestine, omitting the appendix, by the width at the midpoint. Raw numbers of adenomas observed as well as adenomas per unit of small intestine and colon surface area are calculated.

## 19D12 (LCF/HCA): anti-IGF1R antibody 19D12 (LCF/HCA: amino acids 20-128 of SEQ ID NO: 8 and 20-137 of SEQ ID NO: 10)
  adenomas per unit surface area: dose-dependent reduction
  raw adenoma number: dose-dependent reduction
